# What was measured:
# [1] = test system: Caki-2 (clear cell carcinoma) cells; experiment: Intensity of signal emitted by CLR1501, confocal microscopy; assay type: cell-based; conditions: 5 μM CLR1501, 24 hours
# Method: (§1) Similar experiments were performed on several other cancerous cell lines: colorectal adenocarcinoma, uterine carcinoma, pancreatic carcinoma, ovarian adenocarcinoma, glioblastoma, clear cell carcinoma, and prostate adenocarcinoma. For comparison reasons, normal fibroblast cells were incubated with CLR1501.
# (§2) Briefly, cells were plated overnight in micro slides VI (Ibidi, Verona, Wis.). The next day the cells were incubated with 5 μM of CLR1501 for 24 hours at 37° C. The cells were washed with PBS before the images were taken. The images were obtained using Nikon A1R confocal microscope. The length of exposure and intensity of the laser were similar among samples. CLR1501 was obtained using Alexa Fluor 488 filters (488 nm excitation-520 nm emission wavelength).
# (§3) Table 1 illustrates intensity of signal emitted by CLR1501 in cancerous cell lines versus normal cells.
# [2] = test system: NFA (normal fibroblast cells); experiment: as above; assay type: cell-based; conditions: 5 μM CLR1501, 24 hours
# Method: as §1, §2, §3
# [3] = test system: Ovcar-3 (ovarian adenocarcinoma) cells; experiment: as above; assay type: cell-based; conditions: 5 μM CLR1501, 24 hours
# Method: as §1, §2, §3
# [4] = test system: PC3 (prostate adenocarcinoma) cells; experiment: as above; assay type: cell-based; conditions: 5 μM CLR1501, 24 hours
# Method: as §1, §2, §3
# [5] = test system: Panc-1 (pancreatic carcinoma) cells; experiment: as above; assay type: cell-based; conditions: 5 μM CLR1501, 24 hours
# Method: as §1, §2, §3
# [6] = test system: tumor cell lines (HCT-116, MES SA/DX-5, Mia Paca-2, Panc-1, Ovcar-3, U-87MG, Caki-2, PC3); experiment: Uptake of CLR1501 in cancerous cell lines versus normal cells; assay type: cell-based
# Method: as §1, §2
# [7] = test system: skin melanoma (A375) cells; experiment: Distribution of CLR1501 in cancer skin cells; assay type: cell-based
# Method: To study the distribution of CLR1501 in cancer skin cells versus normal skin cells, CLR1501 was introduced into skin melanoma (A375) and normal skin (704sk) cells, purchased from ATCC. Both cells were maintained at 37° C. in DMEM media supplemented with 10% FBS and 5% CO2. Before imaging, the cells were removed from flasks with 0.25% trypsin and were allowed to grow overnight on the slides (Ibidi, microslides VI flat, Catalog No: 80626). […] CRL1501 was formulated with 0.4% of Polysorbate 20, 2% of ethanol and saline. After washing thoroughly with PBS, the cells were imaged using Bio-Rad Radiance 2100 MP Rainbow with 1 second exposure time.
# [8] = test system: normal skin (704sk) cells; experiment: Distribution of CLR1501 in normal skin cells; assay type: cell-based; conditions: 7.5 μM, 24 hours
# Method: To study the distribution of CLR1501 in cancer skin cells versus normal skin cells, CLR1501 was introduced into skin melanoma (A375) and normal skin (704sk) cells, purchased from ATCC. Both cells were maintained at 37° C. in DMEM media supplemented with 10% FBS and 5% CO2. Before imaging, the cells were removed from flasks with 0.25% trypsin and were allowed to grow overnight on the slides (Ibidi, microslides VI flat, Catalog No: 80626). The next day, the media was gently replaced with Phosphate Buffered Saline (PBS) and the cells were incubated with 7.5 μM of CLR1501 on DMEM media for 24 hours. CRL1501 was formulated with 0.4% of Polysorbate 20, 2% of ethanol and saline. After washing thoroughly with PBS, the cells were imaged using Bio-Rad Radiance 2100 MP Rainbow with 1 second exposure time.
# [9] = test system: glioblastoma cells (U87MG); experiment: Incubation of glioblastoma cells with CLR1501 and co-staining; assay type: cell-based; conditions: 48 hours
# Method: The following co-stained dyes were used: Hoechst 33342 (1 μg/mL) (nucleus; blue color), Mitotracker (25 nM) (mitochondria, red color) and Blue-White DPX (100 nM) (Endoplasmic Reticulum (ER), blue color) were diluted in PBS and added to the cells for 15 minutes. The cells were washed with PBS and imaged with Bio-Rad Radiance 2100 MP Rainbow.
# [10] = test system: NFA cells; experiment: Co-culture NFA/PC3, co-staining with nucleus stain and mitochondria marker; assay type: cell-based; conditions: NFA (normal), 5 μM, 24 hours
# Method: (§4) Briefly, NFA and PC3 cell lines were co-cultured overnight on micro slide VI (Ibidi, Verona, Wis.). The next day, the cells were incubated with 5 μM of CLR1501 for 24 hours at 37° C. in complete media. The next day after washing with PBS, the cells were co-stained with nucleus stain (Hoechst 33342) and mitochondria marker (Mitotracker), (Invitrogen, Carlsbad, Calif.). The cells were observed using Nikon A1R confocal microscope. CLR1501 was excited and detected using Alexa-Fluor 488 filter, while nucleus stain and mitochondria stain were excited and detected using DAPI filter and Texas-Red filter, respectively.
# [11] = test system: PC3 cells; experiment: as above; assay type: cell-based; conditions: 5 μM, 24 hours
# Method: as §4
# [12] = test system: Caki-2 cells; experiment: Co-culture NFA/Caki-2, co-staining with nucleus stain and lysosome marker; assay type: cell-based; conditions: 5 μM, 24 hours
# Method: as §4, with “and Caki-2” for “and PC3”, “and lysosome” for “and mitochondria”, “marker (Lyso-tracker),” for “marker (Mitotracker),”, “488 filter” for “488 filter,”, “DAPI” for “DAPI filter”
# [13] = test system: NFA cells; experiment: as above; assay type: cell-based; conditions: co-culture with Caki-2, 5 μM, 24 hours
# Method: as §4, with “and Caki-2” for “and PC3”, “and lysosome” for “and mitochondria”, “marker (Lyso-tracker),” for “marker (Mitotracker),”, “488 filter” for “488 filter,”, “DAPI” for “DAPI filter”
# [14] = test system: Panc-1 (pancreatic carcinoma) tumors; experiment: In vivo fluorescence imaging of CLR1501 distribution in Panc-1 tumor-bearing athymic nude mice; set-up: species or system mouse
# Method: Athymic nude mice (Hsd: Athymic Nude-Fox1^nu), inoculated with Panc-1 (Pancreatic carcinoma), were injected with 150 μL of 6 mg/mL CLR1501 formulated in 0.4% Polysorbate 20, 2% ethanol and saline 24 hour and 96 hours prior to imaging. The fluorescence images were obtained using a Kodak In-Vivo Multispectral System FX. The system provides multispectral tuning of excitation light which is able to separate signals from the dye and from the body autofluorescence. Mice were anesthetized by inhalation of isofluorane. The dyes were excited at 570 nm. […] The mouse was inoculated with 1×10^6 Panc-1 cells (human pancreatic carcinoma). […] CLR1501 was excited at 480 and emitted at 520 nm. The intensity was monitored at 24 and 96 hours using Kodak in vivo imaging system (Carestream Health, Woodbridge, Conn.).
# [15] = test system: Panc-1 cells (human pancreatic carcinoma); experiment: Retention of CLR1501 in pre-incubated Panc-1 cells inoculated into athymic nude mouse; assay type: in vivo; conditions: Panc-1 cells incubated 4 hours, then inoculated
# Method: FIG. 10 depicts tumor co-localization of CLR1501 in athymic nude mouse. […] The mouse was inoculated with 1×10^6 Panc-1 cells (human pancreatic carcinoma) which were incubated with CLR1501 or Kodak X-Sight 761 or both CLR1501 and Kodak X-Sight 761 for 4 hours. The cells were harvested and inoculated in different spots. The signals from each dye were obtained using Kodak in vivo imaging system (Carestream Health, Woodbridge, Conn.). CLR1501 was excited at 480 and emitted at 520 nm while the Kodak X-Sight was excited at 750 and emitted at 830 nm.
# [16] = test system: xenograft and spontaneous primary and metastatic human and rodent tumor models; conditions: cited from earlier work
# [17] = injected 96 hours prior to imaging
smiles,measurement,setting,value
"C[N+](C)(C)CCOP(=O)([O-])OCCCCCCCCCCCCCCCCCCc1ccc(C2=C3C=CC=[N+]3[B-](F)(F)n3cccc32)cc1 [CLR1501, 18-[p-(4,4-difluoro-4-bora-3a,4a-diaza-s-indacene-8-yl)-phenyl]-octadecyl phosphocholine]",Relative intensity to normal cells,[1],10.11
same,Average grey intensity,[1]; 37° C.,151.56
same,Relative intensity to normal cells,[2],1
same,Average grey intensity,[2]; 37° C.,14.99
same,Relative intensity to normal cells,[3],6.2
same,Average grey intensity,[3]; 37° C.,92.86
same,Relative intensity to normal cells,[4],12.01
same,Average grey intensity,[4]; 37° C.,180.04
same,Relative intensity to normal cells,[5],9.58
same,Average grey intensity,[5]; 37° C.,143.65
same,Uptake in cancerous cell lines,"[6]; FIGS. 2c-2i and 2k-2l, 5 μM, 24 hours",significant uptake
same,Penetration into the nucleus,[6]; the in vitro experiments overall,does not penetrate inside of the nucleus
same,Uptake by tumor cells relative to normal fibroblast cells,[6]; tumor cells of Table 1 vs NFA,6-12 times
same,Cellular distribution,"[7]; 7.5 μM, 24 hours",internalization of CLR1501 into numerous fluorescent vesicles that are scattered throughout the cytoplasm
same,Early time uptake profile,[7]; half an hour after incubation,signals are thin and limited at the plasma membrane
same,Early time uptake profile,[7]; one hour after incubation,signals are not concentrated solely in the plasma membrane: intracellular structures are also observed
same,Cellular distribution,[8],transported to the lysosomes where it was degraded
same,Site of accumulation in cells,[9],mostly accumulated in cytoplasm of the cells
same,Co-localization with organelles,"[9]; Mitotracker, Blue-White DPX",co-localized with mitochondria and ER
same,Co-localization with nucleus,[10],not co-localized with nucleus
same,Co-localization with nucleus,[11]; PC3 (tumor),not co-localized with nucleus
same,Co-localization with mitochondria,[11]; PC3,co-localized with mitochondria
same,Co-localization with nucleus,[12]; Caki-2 (tumor),not co-localized with nucleus
same,Co-localization with lysosome,[12]; Caki-2,co-localized with lysosome
same,Co-localization with nucleus,[13]; NFA (normal),not co-localized with nucleus
same,Co-localization with lysosome,[13]; NFA,minimally with NFA
same,Tumor co-localization over time,"[14]; 1 mg in 0.15 mL, monitored at 24 and 96 hours, de-skinned","accumulated in tumor site, while it cleared out from the rest of normal organs"
same,Distribution of fluorescence signal in vivo,"[14]; injected 150 μL of 6 mg/mL, 24 and 96 hours prior to imaging",found mostly in the tumors
same,Accumulation in the tumor,[14]; [17],more pronounced
same,Retention of the dye in other tissues,[14]; [17],tremendously reduced
same,Retention in cancer cells after inoculation,[15],continues to be retained in these cells after in vivo subcutaneous injection
"C[N+](C)(C)CCOP(=O)([O-])OCCCCCCCCCCCCCCCCCCc1ccc(I)cc1 [NM404, 18-p-(iodophenyl)-octadecyl phosphocholine]",Duration of selective retention in tumors,[16]; mouse models,> 80 days
same,Tumor models showing selective retention,[16]; xenograft and spontaneous primary and metastatic tumor models,37 out of 37
